# Test results from US20250388623A1, “PEPTIDE INHIBITOR AND USE THEREOF” (CHENGDU BRILLIANT INSPIRATION BIOTHERAPEUTICS CO., LTD, priority 2022, published 2025).
# Bridge positions count the residues as written; N and C are the ends. Peptide text beside a SMILES is read from it.
# Key:
# [1] = tested on: human hepatic stellate cells (LX-2); assay: ECM-related gene expression (RT-qPCR) in TGF-β1-stimulated LX-2 cells, liver fibrosis cell model; format: cell-based; conditions: 20 ng/mL TGF-β1 24 h, then 100 μM polypeptide 48 h; for COL I gene expression Mean: blank control 1.00, model group 6.62; for FN gene expression Mean: blank control 1.00, model group 11.38
# Excerpt: This Example was to evaluate the inhibitory effect of polypeptides on the expression of extracellular matrix (ECM)-related genes in a cellular model of liver fibrosis. The experiment utilized human hepatic stellate cells (LX-2), which are the primary source of myofibroblasts in the liver. Upon activation, hepatic stellate cells transform into myofibroblasts, which secrete ECM in live and play a direct role in the development of hepatic fibrosis. Transient stimulation of LX-2 cells with TGF-β1 can initiate a positive feedback regulation of TSP-1-TGF-β1 activation, which continuously enhances myofibroblast characteristics, including ECM production.
# This experiment was performed as follows. LX-2 cells (Procell, CL-0560) were stimulated by 20 ng/mL TGF-β1 (Genscript, Catalog No.Z03411) for 24 h, then added 100 μM polypeptide and cultured for 48 h. An equal volume of solvent was added to the model group, and LX-2 cells without any treatment were used as a blank control. After that, LX-2 cells were collected and total RNA was extracted for RT-qPCR to detect the expression of ECM-related genes, EDA-Fibronectin (fibronectin, FN) and Collagen I (COL1). The polypeptides were able to reduce the expressions of FN and COL1 genes in LX-2 and inhibit ECM production.
# active TGF-β = assay: Active TGF-β level in lung tissue, bleomycin (BLM) mouse lung fibrosis model; format: in vivo; conditions: single intratracheal dose 3 mg/kg on Day 7, lung 24 h later, BLM model group = 100.00
# Procedure, shortened: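 Male C57/6J mice (6–8 wk) received intratracheal bleomycin 0.7 USP/kg on Day 1, then a single intratracheal peptide dose of 3 mg/kg on Day 7, with saline for the model group. The value is the ratio of peptide group to model group.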
# P-Smad2/3 = P-Smad2/3 content in lung tissue, BLM mouse fibrosis model; format: in vivo; conditions: single intratracheal dose 3 mg/kg on Day 7, lung 24 h later, BLM model group = 100.00
# Procedure, shortened: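 Male C57/6J mice (6–8 weeks, 18–20 g, n=8/group) received intratracheal bleomycin 0.7 USP/kg on Day 1, then a single intratracheal 3 mg/kg peptide dose or saline on Day 7. Values are expressed as the treated/model content ratio.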
Compound,COL I gene expression Mean [1],FN gene expression Mean [1],"active TGF-β content in lung tissue, ratio to model group, Mean(%) (active TGF-β)","P-Smad2/3 content in lung tissue, ratio to model group, Mean(%) (P-Smad2/3)","active TGF-β content in lung tissue, ratio to model group, Mean(%) (active TGF-β; 3 mg/kg)","P-Smad2/3 content in lung tissue, ratio to model group, Mean(%) (P-Smad2/3; 3 mg/kg)"
"Ac-TQDAEDNTASH-NH2 [SEQ ID NO: 33, Ac-Thr-Gln-Asp-Ala-Glu-Asp-Asn-Thr-Ala-Ser-His-NH2]",4.49,6.80,86.61,71.09,,
"C[C@@H]1NC(=O)[C@H](CC(=O)O)NC(=O)[C@H](CCC(N)=O)NC(=O)[C@H]([C@@H](C)O)NC(=O)[C@H](CC(N)=O)NC(=O)[C@H](CC(=O)O)NC(=O)[C@H](CCC(=O)O)NC1=O [SEQ ID NO: 40, cyclo[Thr-Gln-Asp-Ala-Glu-Asp-Asn]] (cyclo(AEDNTQD))",,,,,68.27,83.20
"Ac-TQDAEDN-NH2 [SEQ ID NO: 06, Ac-Thr-Gln-Asp-Ala-Glu-Asp-Asn-NH2]",4.57,5.72,76.76,54.89,,
"CC(=O)N[C@H](C(=O)N[C@H]1CSSC[C@@H](C(=O)O)NC(=O)[C@H](CC(N)=O)NC(=O)[C@H](CC(=O)O)NC(=O)[C@H](CCC(=O)O)NC(=O)[C@H](C)NC(=O)[C@H](CC(=O)O)NC1=O)[C@@H](C)O [SEQ ID NO: 43, Ac-Thr-cyclo[Cys-Asp-Ala-Glu-Asp-Asn-Cys]] (Ac-TCDAEDNC-OH; disulfide 2-8)",4.63,5.80,75.92,49.30,,
"Ac-TQDAEDPTA-NH2 [SEQ ID NO: 22, Ac-Thr-Gln-Asp-Ala-Glu-Asp-Pro-Thr-Ala-NH2]",4.63,6.62,82.72,55.32,,
"Ac-TQDAEDPTAS-NH2 [SEQ ID NO: 25, Ac-Thr-Gln-Asp-Ala-Glu-Asp-Pro-Thr-Ala-Ser-NH2]",4.00,6.47,86.63,65.07,,
"C[C@@H]1NC(=O)[C@H]([C@@H](C)O)NC(=O)[C@H](CC(N)=O)NC(=O)[C@H](CC(=O)O)NC(=O)[C@H](CCC(=O)O)NC(=O)[C@@H]2CCCN2C(=O)[C@H](CC(=O)O)NC(=O)[C@H](CCC(N)=O)NC(=O)[C@H]([C@@H](C)O)NC(=O)[C@H](CO)NC1=O [SEQ ID NO: 46, cyclo[Thr-Gln-Asp-Pro-Glu-Asp-Asn-Thr-Ala-Ser]] (cyclo(ASTQDPEDNT))",,,79.36,74.60,,
"Ac-TQDPEDNTAS-NH2 [SEQ ID NO: 26, Ac-Thr-Gln-Asp-Pro-Glu-Asp-Asn-Thr-Ala-Ser-NH2]",4.30,5.79,83.44,76.78,,
"CC(=O)N[C@H](C(=O)N[C@H]1CSSC[C@@H](C(N)=O)NC(=O)[C@H](CC(N)=O)NC(=O)[C@H](CC(=O)O)NC(=O)[C@H](CCC(=O)O)NC(=O)[C@H](C)NC(=O)[C@H](CC(=O)O)NC1=O)[C@@H](C)O [SEQ ID NO: 44, Ac-Thr-cyclo[Cys-Asp-Ala-Glu-Asp-Asn-Cys]-NH2] (Ac-TCDAEDNC-NH2; disulfide 2-8)",,,81.73,79.93,,
